Experiments:
Conditions in all cases: treatment: drug + dasatinib (fixed dose, not stated); 5 days
TK-10 [1] = experiment: GI50 of drug in presence of dasatinib; higher = less potent
Experimental: (§1)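 Primary HTS combination arm: 8 RCC cell lines treated with 8 doses (up to 10 uM) of each library drug plus a fixed dose of dasatinib (dose not stated) for 5 days; viability read by CellTiter-Glo and normalised to DMSO. GI50 was fitted with XLfit, AUC is the area under the dose-response curve, and minimum viability is the lowest fraction of DMSO viability across doses.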

769-P [2] = experiment: as above
Experimental: as §1

CAKI-1 [3] = experiment: as above
Experimental: as §1

SN12C [4] = experiment: as above
Experimental: as §1

A498 [5] = experiment: as above
Experimental: as §1

UO-31 [6] = experiment: as above
Experimental: as §1

TK-10 [7] = experiment: AUC of dose-response viability curve, drug + dasatinib, normalised to DMSO (arbitrary (AUC of normalised viability)); higher = less growth inhibition
Experimental: as §1

769-P [8] = experiment: as above
Experimental: as §1

ACHN [9] = experiment: as above
Experimental: as §1

CAKI-1 [10] = experiment: as above
Experimental: as §1

SN12C [11] = experiment: as above
Experimental: as §1

A498 [12] = experiment: as above
Experimental: as §1

786-O [13] = experiment: as above
Experimental: as §1

UO-31 [14] = experiment: as above
Experimental: as §1

TK-10 [15] = experiment: minimum viability across doses, drug + dasatinib, relative to DMSO (fraction); higher = less growth inhibition
Experimental: as §1

769-P [16] = experiment: as above
Experimental: as §1

ACHN [17] = experiment: as above
Experimental: as §1

CAKI-1 [18] = experiment: as above
Experimental: as §1

SN12C [19] = experiment: as above
Experimental: as §1

A498 [20] = experiment: as above
Experimental: as §1

786-O [21] = experiment: as above
Experimental: as §1

UO-31 [22] = experiment: as above
Experimental: as §1

786-O [23] = experiment: GI50 of drug in presence of dasatinib; higher = less potent
Experimental: as §1

| Compound | GI50 of drug (TK-10 [1]) [µM] | GI50 of drug (769-P [2]) [µM] | GI50 of drug (CAKI-1 [3]) [µM] | GI50 of drug (SN12C [4]) [µM] | GI50 of drug (A498 [5]) [µM] | GI50 of drug (UO-31 [6]) [µM] | AUC of dose-response viability curve (TK-10 [7]) | AUC of dose-response viability curve (769-P [8]) | AUC of dose-response viability curve (ACHN [9]) | AUC of dose-response viability curve (CAKI-1 [10]) | AUC of dose-response viability curve (SN12C [11]) | AUC of dose-response viability curve (A498 [12]) | AUC of dose-response viability curve (786-O [13]) | AUC of dose-response viability curve (UO-31 [14]) | minimum viability across doses (TK-10 [15]) | minimum viability across doses (769-P [16]) | minimum viability across doses (ACHN [17]) | minimum viability across doses (CAKI-1 [18]) | minimum viability across doses (SN12C [19]) | minimum viability across doses (A498 [20]) | minimum viability across doses (786-O [21]) | minimum viability across doses (UO-31 [22]) | GI50 of drug (786-O [23]) [µM] |
| --- | --- | --- | --- | --- | --- | --- | --- | --- | --- | --- | --- | --- | --- | --- | --- | --- | --- | --- | --- | --- | --- | --- | --- |
| CC1CCN(C(=O)CC#N)C[C@@H]1N(C)c1ncnc2[nH]ccc12.O=C(O)CC(O)(CC(=O)O)C(=O)O (stereo in doubt) + Cc1nc(Nc2ncc(C(=O)Nc3c(C)cccc3Cl)s2)cc(N2CCN(CCO)CC2)n1 [dasatinib] | > 10 | > 10 | > 10 | > 10 | > 10 | > 10 | 2.51 | 2.6 | 1.7 | 2.56 | 2.48 | 3.5 | 1.92 | 3.69 | 0.647 | 0.681 | 0.304 | 0.567 | 0.69 | 0.887 | 0.439 | 0.934 | – |
| O=C1NC(=O)/C(=C/c2ccc3nccnc3c2)S1 + Cc1nc(Nc2ncc(C(=O)Nc3c(C)cccc3Cl)s2)cc(N2CCN(CCO)CC2)n1 [dasatinib] | > 10 | 8.39 | 4.25 | > 10 | > 10 | > 10 | 2.57 | 2.33 | 2.01 | 2.23 | 2.56 | 3.09 | 2.15 | 3.46 | 0.64 | 0.491 | 0.479 | 0.343 | 0.704 | 0.781 | 0.464 | 0.879 | 1.55 |
| Cc1ccccc1-n1c(Cn2cnc3c(N)ncnc32)nc2cccc(C)c2c1=O + Cc1nc(Nc2ncc(C(=O)Nc3c(C)cccc3Cl)s2)cc(N2CCN(CCO)CC2)n1 [dasatinib] | > 10 | > 10 | > 10 | > 10 | > 10 | > 10 | 2.49 | 2.4 | 1.87 | 2.28 | 2.53 | 3.27 | 1.98 | 3.34 | 0.651 | 0.612 | 0.443 | 0.516 | 0.695 | 0.859 | 0.444 | 0.738 | 5.69 |
| OCCn1cc(-c2cnc3nnn(Cc4ccc5ncccc5c4)c3n2)cn1 + Cc1nc(Nc2ncc(C(=O)Nc3c(C)cccc3Cl)s2)cc(N2CCN(CCO)CC2)n1 [dasatinib] | > 10 | > 10 | – | > 10 | > 10 | > 10 | 2.57 | 2.44 | 1.77 | 2.02 | 2.32 | 3.25 | 2.79 | 3.41 | 0.688 | 0.651 | 0.448 | 0.408 | 0.614 | 0.872 | 0.702 | 0.926 | > 10 |
| CCn1c(N)c(C(=O)NC)c(=O)c2ccc(C#C[C@@](C)(O)COC)nc21 + Cc1nc(Nc2ncc(C(=O)Nc3c(C)cccc3Cl)s2)cc(N2CCN(CCO)CC2)n1 [dasatinib] | > 10 | > 10 | > 10 | > 10 | > 10 | > 10 | 2.72 | 2.74 | 1.87 | 2.43 | 2.52 | 3.2 | 2.59 | 4.43 | 0.721 | 0.671 | 0.432 | 0.588 | 0.684 | 0.773 | 0.589 | 0.884 | > 10 |
| O=c1cc(N2CCOCC2)oc2c(-c3ccccc3)cccc12 + Cc1nc(Nc2ncc(C(=O)Nc3c(C)cccc3Cl)s2)cc(N2CCN(CCO)CC2)n1 [dasatinib] | > 10 | 5.32 | 3.01 | > 10 | > 10 | 9.2 | 2.49 | 2.2 | 1.77 | 1.98 | 2.34 | 2.88 | 2.28 | 3.24 | 0.663 | 0.412 | 0.362 | 0.393 | 0.512 | 0.656 | 0.394 | 0.457 | 4.54 |
| NC(=O)c1ccc(-c2nc(-c3ccc4c(c3)OCO4)c(-c3ccccn3)[nH]2)cc1 + Cc1nc(Nc2ncc(C(=O)Nc3c(C)cccc3Cl)s2)cc(N2CCN(CCO)CC2)n1 [dasatinib] | > 10 | – | 3 | > 10 | > 10 | > 10 | 2.75 | 1.77 | 2.08 | 2.18 | 2.41 | 3.17 | 2.24 | 3.57 | 0.636 | 0.234 | 0.317 | 0.456 | 0.446 | 0.592 | 0.485 | 0.844 | 2.37 |
| C[C@@H]1CCN(C(=O)CC#N)C[C@@H]1N(C)c1ncnc2[nH]ccc12 + Cc1nc(Nc2ncc(C(=O)Nc3c(C)cccc3Cl)s2)cc(N2CCN(CCO)CC2)n1 [dasatinib] | > 10 | > 10 | > 10 | > 10 | > 10 | > 10 | 2.59 | 2.6 | 1.62 | 2.53 | 2.51 | 3.91 | 3.03 | 4.82 | 0.7 | 0.664 | 0.363 | 0.685 | 0.695 | 1 | 0.743 | 1.23 | > 10 |
| CCS(=O)(=O)N1CC(CC#N)(n2cc(-c3ncnc4[nH]ccc34)cn2)C1 + Cc1nc(Nc2ncc(C(=O)Nc3c(C)cccc3Cl)s2)cc(N2CCN(CCO)CC2)n1 [dasatinib] | > 10 | > 10 | 8.06 | > 10 | > 10 | > 10 | 2.61 | 2.46 | 1.78 | 2.4 | 2.51 | 4.02 | 2.58 | 4.24 | 0.689 | 0.625 | 0.44 | 0.47 | 0.692 | 1.07 | 0.399 | 0.917 | 6.65 |
| Cn1cnc(N)c2ncnc1-2 [3-Methyladenine] + Cc1nc(Nc2ncc(C(=O)Nc3c(C)cccc3Cl)s2)cc(N2CCN(CCO)CC2)n1 [dasatinib] | > 10 | > 10 | > 10 | > 10 | > 10 | > 10 | 2.57 | 2.57 | 1.56 | 2.47 | 2.57 | 3.49 | 2.32 | 4.32 | 0.691 | 0.649 | 0.329 | 0.673 | 0.703 | 0.947 | 0.542 | 1.03 | > 10 |
| Cc1ccc(-n2nc(C(C)(C)C)cc2NC(=O)Nc2ccc(OCCN3CCOCC3)c3ccccc23)cc1 [BIRB 796 (Doramapimod)] + Cc1nc(Nc2ncc(C(=O)Nc3c(C)cccc3Cl)s2)cc(N2CCN(CCO)CC2)n1 [dasatinib] | > 10 | > 10 | > 10 | > 10 | > 10 | > 10 | 2.49 | 2.29 | 1.78 | 2.29 | 2.4 | 3.07 | 2.63 | 3.79 | 0.66 | 0.537 | 0.439 | 0.567 | 0.659 | 0.755 | 0.639 | 0.946 | > 10 |
| CC[C@H](Nc1ncnc2[nH]cnc12)c1nc2cccc(F)c2c(=O)n1-c1ccccc1 [CAL-101 (GS-1101)] + Cc1nc(Nc2ncc(C(=O)Nc3c(C)cccc3Cl)s2)cc(N2CCN(CCO)CC2)n1 [dasatinib] | 8.33 | 7.53 | – | > 10 | > 10 | 6.29 | 2.44 | 2.32 | 1.86 | 1.84 | 2.3 | 3.29 | 2.12 | 3.55 | 0.493 | 0.477 | 0.341 | 0.0955 | 0.546 | 0.843 | 0.298 | 0.362 | 1.48 |
| O=C1Nc2ccccc2/C1=C1/Nc2ccccc2C1=O [Indirubin] + Cc1nc(Nc2ncc(C(=O)Nc3c(C)cccc3Cl)s2)cc(N2CCN(CCO)CC2)n1 [dasatinib] | > 10 | > 10 | > 10 | > 10 | > 10 | > 10 | 2.48 | 2.38 | 1.65 | 2.02 | 2.36 | 3.41 | 1.76 | 3.15 | 0.593 | 0.632 | 0.435 | 0.497 | 0.624 | 0.941 | 0.394 | 0.799 | – |
| COc1ccc2c(c1OC)N=C(NC(=O)c1cccnc1)N1CCN=C21 [PIK-90] + Cc1nc(Nc2ncc(C(=O)Nc3c(C)cccc3Cl)s2)cc(N2CCN(CCO)CC2)n1 [dasatinib] | > 10 | 1.48 | 0.424 | 2.26 | > 10 | 3.82 | 2.3 | 2.03 | 1.7 | 1.82 | 2.21 | 3.11 | 1.76 | 2.69 | 0.552 | 0.268 | 0.235 | 0.136 | 0.52 | 0.762 | 0.388 | 0.434 | – |
| Cc1cc(C(C)Nc2ccccc2)c2nc(N3CCOCC3)cc(=O)n2c1 (configuration not stated) [TGX-221] + Cc1nc(Nc2ncc(C(=O)Nc3c(C)cccc3Cl)s2)cc(N2CCN(CCO)CC2)n1 [dasatinib] | > 10 | – | 0.231 | > 10 | > 10 | 4.86 | 2.35 | 2.01 | 1.82 | 1.83 | 2.4 | 3.6 | 2.04 | 3.16 | 0.554 | 0.346 | 0.424 | 0.281 | 0.624 | 0.949 | 0.299 | 0.349 | – |
